In ChEMBL document CHEMBL1151262, “Labdane diterpenes from Aster spathulifolius and their cytotoxic effects on human cancer cell lines” (2005):
In brackets after ≈: the same amount, converted by molar mass.

Key:
Format in all cases: functional
Settings in all cases: read-out: ED50 (the source's name)
HCT-15 = assay: Cytotoxicity against human HCT15 cells by SRB method
SK-OV-3 = assay: Cytotoxicity against human SKOV3 cells by SRB method
A549 = assay: Cytotoxicity against human A549 cells by SRB method
XF498 = assay: Cytotoxicity against human XF498 cells by SRB method
SK-MEL-2 = assay: Cytotoxicity against human SK-MEL-2 cells by SRB method

SMILES	EC50 (HCT-15) [µg/mL]	EC50 (SK-OV-3) [µg/mL]	EC50 (A549) [µg/mL]	EC50 (XF498) [µg/mL]	EC50 (SK-MEL-2) [µg/mL]
C=C[C@@](C)(CC[C@H]1C(C)=CC[C@H]2C(C)(C)CCC[C@]12C)O[C@@H]1O[C@@H](C)[C@@H](OC(C)=O)[C@H](O)[C@H]1O	3.1 (≈ 6.48 µM)	3.4 (≈ 7.1 µM)	3.2 (≈ 6.69 µM)	3.8 (≈ 7.94 µM)	3.5 (≈ 7.31 µM)
C=C[C@@](C)(CC[C@H]1C(C)=CC[C@H]2C(C)(C)CCC[C@]12C)O[C@@H]1O[C@@H](C)[C@@H](O)[C@H](O)[C@H]1O	3.2 (≈ 7.33 µM)	5.7 (≈ 13.1 µM)	3.9 (≈ 8.93 µM)	8.9 (≈ 20.4 µM)	4.2 (≈ 9.62 µM)
C=C[C@](C)(O)CC[C@H]1C(=C)[C@H](O)C[C@H]2C(C)(C)CCC[C@]12C	> 5	> 5	> 5	> 5	> 5
C=C[C@@](C)(CC[C@H]1C(C)=CC[C@H]2C(C)(C)CCC[C@]12C)O[C@@H]1O[C@H](C)[C@H](O)[C@H](O)[C@H]1O	3.9 (≈ 8.93 µM)	3.6 (≈ 8.24 µM)	3.5 (≈ 8.02 µM)	4.2 (≈ 9.62 µM)	3.5 (≈ 8.02 µM)
C=C[C@@](C)(CC[C@@H]1[C@@]2(C)CCCC(C)(C)[C@@H]2CC[C@@]1(C)O)O[C@@H]1O[C@H](C)[C@H](O)[C@H](O)[C@H]1O	> 5	> 5	> 5	> 5	> 5
C=C[C@@](C)(CC[C@H]1C(C)=CC[C@H]2C(C)(C)CCC[C@]12C)O[C@@H]1O[C@H](C)[C@H](O)[C@H](OC(C)=O)[C@H]1O	3.8 (≈ 7.94 µM)	3.8 (≈ 7.94 µM)	3.6 (≈ 7.52 µM)	5.1 (≈ 10.7 µM)	3.5 (≈ 7.31 µM)
C=C[C@@](C)(CC[C@@H]1[C@@]2(C)CCCC(C)(C)[C@@H]2CC[C@@]1(C)O)O[C@H]1O[C@H](C)[C@H](O)[C@@H](O)[C@@H]1O	> 5	> 5	> 5	> 5	> 5
C=C[C@@](C)(O)CC[C@@H]1[C@@]2(C)CCCC(C)(C)[C@@H]2CC[C@@]1(C)O	> 5	> 5	> 5	> 5	> 5
C=C[C@](C)(O)CC[C@H]1C(C)=CC[C@H]2C(C)(C)CCC[C@]12C	9.1 (≈ 31.3 µM)	8.7 (≈ 29.9 µM)	2.4 (≈ 8.26 µM)	9.5 (≈ 32.7 µM)	4.4 (≈ 15.1 µM)
C=C[C@@]1(C)CC[C@H]2[C@]3(C)CCC[C@@](C)(C(=O)O)[C@H]3CC[C@]2(C)O1	> 5	> 5	> 5	> 5	> 5
C=C[C@@](C)(CC[C@H]1C(C)=CC[C@H]2C(C)(C)CCC[C@]12C)O[C@@H]1O[C@H](C)[C@H](OC(C)=O)[C@H](O)[C@H]1O	4.1 (≈ 8.57 µM)	5.8 (≈ 12.1 µM)	3.9 (≈ 8.15 µM)	8.9 (≈ 18.6 µM)	3.4 (≈ 7.1 µM)
COc1cccc2c1C(=O)c1c(O)c3c(c(O)c1C2=O)C[C@@](O)(C(=O)CO)C[C@@H]3O[C@H]1C[C@H](N)[C@H](O)[C@H](C)O1 [DOXORUBICIN]	0.35 (≈ 0.644 µM)	0.12 (≈ 0.221 µM)	0.012 (≈ 0.0221 µM)	0.01 (≈ 0.0184 µM)	0.003 (≈ 0.00552 µM)
COc1cc([C@@H]2c3cc4c(cc3[C@@H](O[C@@H]3O[C@@H]5CO[C@@H](C)O[C@H]5[C@H](O)[C@H]3O)[C@H]3COC(=O)[C@H]23)OCO4)cc(OC)c1O [ETOPOSIDE]	2.2 (≈ 3.74 µM)	2.7 (≈ 4.59 µM)	1.5 (≈ 2.55 µM)	2.6 (≈ 4.42 µM)	0.08 (≈ 0.136 µM)
